Source: patent US10035794B2, “Heterocyclic derivatives and their use in the treatment of neurological disorders” (NOVARTIS AG, priority 2011, dated 2018)

Assay: Test 4: Inhibition of Cellular Release of Amyloid Peptide 1-40
Format: cell-based, Chinese hamster
Conditions: Cricetulus griseus, CHO, 24 h; read-out: Amyloid-β1-40 release IC50
Method: Chinese hamster ovary cells are transfected with the human gene for amyloid precursor protein. The cells are plated at a density of 8000 cells/well into 96-well microtiter plates and cultivated for 24 hours in DMEM cell culture medium containing 10% FCS. The test compound is added to the cells at various concentrations, and the cells are cultivated for 24 hours in the presence of the test compound.

| SMILES | IC50 [nM] |
| --- | --- |
| C[C@@]1(c2cc(NC(=O)c3ncc(C#N)cc3Cl)ncc2F)CO[C@@](C)(C(F)(F)F)C(N)=N1 [Example 35, 3-Chloro-5-cyano-pyridine-2-carboxylic acid [4-((3R,6R)-5-amino-3,6-dimethyl-6-trifluoromethyl-3,6-dihydro-2H-[1,4]oxazin-3-yl)-5-fluoro-pyridin-2-yl]-amide] | 140 |
| [2H]c1nc(C(=O)Nc2cccc(C3(CF)COCC(N)=N3)n2)c(C([2H])([2H])[2H])c([2H])c1Cl (centres unmarked) [Example 6, 5-{6-[(4,6-Dideutero-5-chloro-3-trideuteromethyl-pyridine-2-carbonyl)-amino]-pyridin-2-yl}-5-fluoromethyl-5,6-dihydro-2H-[1,4]oxazin-3-yl-ammonium trifluoro acetate] | 63 |
| Cc1cnc(C(=O)Nc2ccc(F)c([C@]3(C)CO[C@@](C)(C(F)(F)F)C(N)=N3)n2)cn1 [Example 33, 5-Methyl-pyrazine-2-carboxylic acid [6-((3R,6R)-5-amino-3,6-dimethyl-6-trifluoromethyl-3,6-dihydro-2H-[1,4]oxazin-3-yl)-5-fluoro-pyridin-2-yl]amide] | 130 |
| Cc1cc(C#N)cnc1C(=O)Nc1ccc(F)c([C@@]2(C(F)F)COCC(N)=N2)n1 [Example 39, 5-Cyano-3-methyl-pyridine-2-carboxylic acid [6-((S)-5-amino-3-difluoromethyl-3,6-dihydro-2H-[1,4]oxazin-3-yl)-5-fluoro-pyridin-2-yl]-amide] | 290 |
| [2H]c1nc(C(=O)Nc2cc(C3(CF)COCC(N)=N3)ccn2)c(C([2H])([2H])[2H])c([2H])c1Cl (centres unmarked) [Example 13, 5-{2-[(5-Chloro-4,6-dideutero-3-trideuteromethyl-pyridine-2-carbonyl)-amino]-pyridin-4-yl}-5-fluoromethyl-5,6-dihydro-2H-[1,4]oxazin-3-yl-ammonium acetate] | 550 |
| COCCn1ccc2nc(C(=O)Nc3ccc(F)c([C@]4(C)CO[C@@](C)(C(F)(F)F)C(N)=N4)n3)c(N)nc21 [Example 43, 3-Amino-5-(2-methoxy-ethyl)-5H-pyrrolo[2,3-b]pyrazine-2-carboxylic acid [6-((3R,6R)-5-amino-3,6-dimethyl-6-trifluoromethyl-3,6-dihydro-2H-[1,4]oxazin-3-yl)-5-fluoro-pyridin-2-yl]amide] | 370 |
| C[C@@]1(c2nc(NC(=O)c3ncc(OCCCF)nc3N)ccc2F)CO[C@@](C)(C(F)(F)F)C(N)=N1 [Example 42, 3-Amino-5-(3-fluoro-propoxy)-pyrazine-2-carboxylic acid [6-((3R,6R)-5-amino-3,6-dimethyl-6-trifluoromethyl-3,6-dihydro-2H-[1,4]oxazin-3-yl)-5-fluoro-pyridin-2-yl]amide] | 72 |
| Cc1cc(C#N)cnc1C(=O)Nc1ccc(F)c([C@]2(C(F)F)COCC(N)=N2)n1 [Example 38, 5-Cyano-3-methyl-pyridine-2-carboxylic acid [6-((R)-5-amino-3-difluoromethyl-3,6-dihydro-2H-[1,4]oxazin-3-yl)-5-fluoro-pyridin-2-yl]-amide] | 5 |
| C[C@]1(c2cccc(NC(=O)c3ccc(C#N)cn3)n2)CO[C@@](C)(C(F)(F)F)C(N)=N1 [Example 9, 5-Cyano-pyridine-2-carboxylic acid [6-((3S,6R)-5-amino-3,6-dimethyl-6-trifluoromethyl-3,6-dihydro-2H-[1,4]oxazin-3-yl)-pyridin-2-yl]-amide] | 1900 |
| CC1(c2cccc(NC(=O)c3ccc(Br)cn3)n2)COCC(N)=N1 (racemic) [Example 2, 5-Bromo-pyridine-2-carboxylic acid [6-(5-amino-3-methyl-3,6-dihydro-2H-[1,4]-oxazin-3-yl)-pyridin-2-yl]-amide] | 58 |
| Cc1cc(OC(F)F)cnc1C(=O)Nc1ccc(F)c([C@]2(C)CO[C@@](C)(C(F)(F)F)C(N)=N2)n1 [Example 29, 5-Difluoromethoxy-3-methyl-pyridine-2-carboxylic acid [6-((3R,6R)-5-amino-3,6-dimethyl-6-trifluoromethyl-3,6-dihydro-2H-[1,4]oxazin-3-yl)-5-fluoro-pyridin-2-yl]amide] | 24 |
| Cc1cc(C#N)cnc1C(=O)Nc1cccc([C@]2(C)CO[C@@](C)(C(F)(F)F)C(N)=N2)n1 [Example 8, 5-Cyano-3-methyl-pyridine-2-carboxylic acid [6-((3R,6R)-5-amino-3,6-dimethyl-6-trifluoro-methyl-3,6-dihydro-2H-[1,4]oxazin-3-yl)-pyridin-2-yl]-amide] | 6 |
| C[C@@]1(c2cccc(NC(=O)c3ccc(C#N)cn3)n2)CO[C@@](C)(C(F)(F)F)C(N)=N1 [Example 10, 5-Cyano-pyridine-2-carboxylic acid [6-((3R,6R)-5-amino-3,6-dimethyl-6-trifluoromethyl-3,6-dihydro-2H-[1,4]oxazin-3-yl)-pyridin-2-yl]-amide] | 17 |
| Cc1cc(C#N)cnc1C(=O)Nc1ccc(F)c([C@@]2(C)CO[C@@](C)(C(F)(F)F)C(N)=N2)n1 [Example 12, 5-Cyano-3-methyl-pyridine-2-carboxylic acid [6-((3S,6R)-5-amino-3,6-dimethyl-6-trifluoromethyl-3,6-dihydro-2H-[1,4]oxazin-3-yl)-5-fluoro-pyridin-2-yl]-amide] | 280 |
| Cc1cc(OCF)cnc1C(=O)Nc1ccc(F)c([C@]2(C)CO[C@@](C)(C(F)(F)F)C(N)=N2)n1 [Example 32, 5-Fluoromethoxy-3-methyl-pyridine-2-carboxylic acid [6-((3R,6R)-5-amino-3,6-dimethyl-6-trifluoromethyl-3,6-dihydro-2H-[1,4]oxazin-3-yl)-5-fluoro-pyridin-2-yl]amide] | 26 |
| Cc1cc(C#N)cnc1C(=O)Nc1cc([C@]2(C)COC(CF)(CF)C(N)=N2)c(F)cn1 [Example 37, 5-Cyano-3-methyl-pyridine-2-carboxylic acid [4-((R)-5-amino-6,6-bis-fluoromethyl-3-methyl-3,6-dihydro-2H-[1,4]oxazin-3-yl)-5-fluoro-pyridin-2-yl]-amide] | 83 |
| C[C@@]1(c2cccc(NC(=O)c3ccc(Br)cn3)n2)COCC(N)=N1 [Example 1, 5-Bromo-pyridine-2-carboxylic acid [6-((R)-5-amino-3-methyl-3,6-dihydro-2H-[1,4]-oxazin-3-yl)-pyridin-2-yl]-amide] | 41 |
| Cc1cc(C#N)cnc1C(=O)Nc1ccc(F)c([C@]2(C)CO[C@@](C)(C(F)(F)F)C(N)=N2)n1 [Example 11, 5-Cyano-3-methyl-pyridine-2-carboxylic acid [6-((3R,6R)-5-amino-3,6-dimethyl-6-trifluoromethyl-3,6-dihydro-2H-[1,4]oxazin-3-yl)-5-fluoro-pyridin-2-yl]-amide] | 2 |
| COc1cnc(C(=O)Nc2ccc(F)c([C@]3(C)CO[C@@](C)(C(F)(F)F)C(N)=N3)n2)c(C)c1 [Example 25, 5-Methoxy-3-methyl-pyridine-2-carboxylic acid [6-((3R,6R)-5-amino-3,6-dimethyl-6-trifluoromethyl-3,6-dihydro-2H-[1,4]oxazin-3-yl)-5-fluoro-pyridin-2-yl]amide] | 76 |
| Cc1cc(C#N)cnc1C(=O)Nc1cc([C@@]2(C)CO[C@@](C)(C(F)(F)F)C(N)=N2)c(F)cn1 [Example 17, 5-Cyano-3-methyl-pyridine-2-carboxylic acid [4-((3S,6R)-5-amino-3,6-dimethyl-6-trifluoromethyl-3,6-dihydro-2H-[1,4]oxazin-3-yl)-5-fluoro-pyridin-2-yl]-amide] | 4800 |
